Reference: PubChem BioAssay (NCI)
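Each compound was tested at five concentrations against cells in 96-well plates for 48 hours. Here, GI50 denotes the concentration required for 50% inhibition of growth. TGI: concentration producing complete growth inhibition.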

Experiments:
Assay in all cases: growth of human tumour cells (NCI), 48 h
SK-OV-3 ovarian = test system: SK-OV-3 ovarian
LOX IMVI melanoma = test system: LOX IMVI melanoma
OVCAR-3 ovarian = test system: OVCAR-3 ovarian
SNB-75 CNS = test system: SNB-75 CNS
OVCAR-4 ovarian = test system: OVCAR-4 ovarian
U251 CNS = test system: U251 CNS
PC-3 prostate = test system: PC-3 prostate
T-47D breast = test system: T-47D breast
HCC-2998 colon = test system: HCC-2998 colon
MDA-MB-231 breast = test system: MDA-MB-231 breast
ACHN renal = test system: ACHN renal
NCI-H226 lung = test system: NCI-H226 lung
TK-10 renal = test system: TK-10 renal
NCI-H460 lung = test system: NCI-H460 lung
SF-295 CNS = test system: SF-295 CNS
SW-620 colon = test system: SW-620 colon
HCT-116 colon = test system: HCT-116 colon
SF-268 CNS = test system: SF-268 CNS
HCT-15 colon = test system: HCT-15 colon
MALME-3M melanoma = test system: MALME-3M melanoma
NCI-H23 lung = test system: NCI-H23 lung
OVCAR-5 ovarian = test system: OVCAR-5 ovarian
HT29 colon = test system: HT29 colon
MDA-MB-435 = test system: MDA-MB-435
SK-MEL-5 melanoma = test system: SK-MEL-5 melanoma
BT-549 breast = test system: BT-549 breast
K-562 leukemia = test system: K-562 leukemia
MCF7 breast = test system: MCF7 breast
EKVX NSCLC = test system: EKVX NSCLC
A498 renal = test system: A498 renal
HOP-92 NSCLC = test system: HOP-92 NSCLC
KM12 colon = test system: KM12 colon
UACC-62 melanoma = test system: UACC-62 melanoma
IGROV1 ovarian = test system: IGROV1 ovarian
HS 578T breast = test system: HS 578T breast
SF-539 CNS = test system: SF-539 CNS
786-0 renal = test system: 786-0 renal
A549 NSCLC = test system: A549 NSCLC
COLO 205 colon = test system: COLO 205 colon
UACC-257 melanoma = test system: UACC-257 melanoma
SK-MEL-2 melanoma = test system: SK-MEL-2 melanoma
RXF 393 renal = test system: RXF 393 renal
SNB-19 CNS = test system: SNB-19 CNS
UO-31 renal = test system: UO-31 renal
SK-MEL-28 melanoma = test system: SK-MEL-28 melanoma
DU-145 prostate = test system: DU-145 prostate
NCI/ADR-RES ovarian = test system: NCI/ADR-RES ovarian
M14 melanoma = test system: M14 melanoma
NCI-H522 lung = test system: NCI-H522 lung
OVCAR-8 ovarian = test system: OVCAR-8 ovarian
HOP-62 NSCLC = test system: HOP-62 NSCLC
HL-60(TB) leukemia = test system: HL-60(TB) leukemia
RPMI-8226 leukemia = test system: RPMI-8226 leukemia
CCRF-CEM leukemia = test system: CCRF-CEM leukemia
SN12C renal = test system: SN12C renal

**Q.** What does the source list for `Cn1c2c(c3ccc(-c4ccn[nH]4)cc3c1=O)C(=O)c1ccccc1-2`?
**A.** GI50 (SK-OV-3 ovarian): 5.21 µM; TGI (SK-OV-3 ovarian): > 100 µM; GI50 (LOX IMVI melanoma): 1.06 µM; TGI (LOX IMVI melanoma): 4.78 µM; GI50 (OVCAR-3 ovarian): 5.97 µM; TGI (OVCAR-3 ovarian): 76.3 µM; GI50 (SNB-75 CNS): 6.18 µM; TGI (SNB-75 CNS): > 100 µM; GI50 (OVCAR-4 ovarian): 7.65 µM; TGI (OVCAR-4 ovarian): > 100 µM; GI50 (U251 CNS): 1.66 µM; TGI (U251 CNS): 10.5 µM; GI50 (PC-3 prostate): 4.28 µM; TGI (PC-3 prostate): > 100 µM; GI50 (T-47D breast): 2.86 µM; TGI (T-47D breast): > 100 µM; GI50 (HCC-2998 colon): 11.6 µM; TGI (HCC-2998 colon): > 100 µM; GI50 (MDA-MB-231 breast): 4.46 µM; TGI (MDA-MB-231 breast): 64.7 µM; GI50 (ACHN renal): 1.34 µM; TGI (ACHN renal): 5.78 µM; GI50 (NCI-H226 lung): 1.83 µM; TGI (NCI-H226 lung): 5.39 µM; GI50 (TK-10 renal): 4.02 µM; TGI (TK-10 renal): 68.6 µM; GI50 (NCI-H460 lung): 0.494 µM; TGI (NCI-H460 lung): 3.37 µM; GI50 (SF-295 CNS): 3.81 µM; TGI (SF-295 CNS): > 100 µM; GI50 (SW-620 colon): 2.15 µM; TGI (SW-620 colon): > 100 µM; GI50 (HCT-116 colon): 1.52 µM; TGI (HCT-116 colon): 19 µM; GI50 (SF-268 CNS): 3.21 µM; TGI (SF-268 CNS): > 100 µM; GI50 (HCT-15 colon): 1.51 µM; TGI (HCT-15 colon): > 100 µM; GI50 (MALME-3M melanoma): 4.21 µM; TGI (MALME-3M melanoma): > 100 µM; GI50 (NCI-H23 lung): 2.64 µM; TGI (NCI-H23 lung): > 100 µM; GI50 (OVCAR-5 ovarian): 5.08 µM; TGI (OVCAR-5 ovarian): > 100 µM; GI50 (HT29 colon): 1.52 µM; TGI (HT29 colon): 4.85 µM; GI50 (MDA-MB-435): 7.51 µM; TGI (MDA-MB-435): > 100 µM; GI50 (SK-MEL-5 melanoma): 1.76 µM; TGI (SK-MEL-5 melanoma): 5.68 µM; GI50 (BT-549 breast): 2.29 µM; TGI (BT-549 breast): 8.78 µM; GI50 (K-562 leukemia): 2.17 µM; TGI (K-562 leukemia): > 100 µM; GI50 (MCF7 breast): 0.408 µM; TGI (MCF7 breast): > 100 µM; GI50 (EKVX NSCLC): 2.95 µM; TGI (EKVX NSCLC): > 100 µM; GI50 (A498 renal): 6.44 µM; TGI (A498 renal): > 100 µM; GI50 (HOP-92 NSCLC): 2.84 µM; TGI (HOP-92 NSCLC): 9.93 µM; GI50 (KM12 colon): 2.34 µM; TGI (KM12 colon): > 100 µM; GI50 (UACC-62 melanoma): 3.1 µM; TGI (UACC-62 melanoma): > 100 µM; GI50 (IGROV1 ovarian): 2.18 µM; TGI (IGROV1 ovarian): > 100 µM; GI50 (HS 578T breast): 6.84 µM; TGI (HS 578T breast): > 100 µM; GI50 (SF-539 CNS): 2.28 µM; TGI (SF-539 CNS): 11.4 µM; GI50 (786-0 renal): 1.49 µM; TGI (786-0 renal): 4.46 µM; GI50 (A549 NSCLC): 1.03 µM; TGI (A549 NSCLC): 3.04 µM; GI50 (COLO 205 colon): 5.51 µM; TGI (COLO 205 colon): > 100 µM; GI50 (UACC-257 melanoma): 7.79 µM; TGI (UACC-257 melanoma): > 100 µM; GI50 (SK-MEL-2 melanoma): > 100 µM; TGI (SK-MEL-2 melanoma): > 100 µM; GI50 (RXF 393 renal): 3.61 µM; TGI (RXF 393 renal): > 100 µM; GI50 (SNB-19 CNS): 2.71 µM; TGI (SNB-19 CNS): 17.3 µM; GI50 (UO-31 renal): 1.5 µM; TGI (UO-31 renal): > 100 µM; GI50 (SK-MEL-28 melanoma): 42.5 µM; TGI (SK-MEL-28 melanoma): > 100 µM; GI50 (DU-145 prostate): 1.71 µM; TGI (DU-145 prostate): > 100 µM; GI50 (NCI/ADR-RES ovarian): 3.78 µM; TGI (NCI/ADR-RES ovarian): > 100 µM; GI50 (M14 melanoma): 3.6 µM; TGI (M14 melanoma): > 100 µM; GI50 (NCI-H522 lung): 2.22 µM; TGI (NCI-H522 lung): 23.8 µM; GI50 (OVCAR-8 ovarian): 1.78 µM; TGI (OVCAR-8 ovarian): 34.6 µM; GI50 (HOP-62 NSCLC): 1.92 µM; TGI (HOP-62 NSCLC): 9.89 µM; GI50 (HL-60(TB) leukemia): 0.813 µM; TGI (HL-60(TB) leukemia): 5.53 µM; GI50 (RPMI-8226 leukemia): 1.77 µM; TGI (RPMI-8226 leukemia): 4.79 µM; GI50 (CCRF-CEM leukemia): 0.832 µM; TGI (CCRF-CEM leukemia): > 100 µM; GI50 (SN12C renal): 2.1 µM; TGI (SN12C renal): 8.86 µM
